The source of these data is patent US6410249B1, “Odorant receptors” (priority 1999, dated 2002).

For test [1], the target named is T1, receptor 5.24 (Carassius auratus, UniProt Q9PW88).
T1 construct: The receptor 5.24 full length cDNA detects 1-2 bands in genomic DNA blots; expressed in transfected cells; host or cells: HEK 293 cells expressing SV40 large T antigen (293-TSA)
T1 sequence (Q9PW88 25-877): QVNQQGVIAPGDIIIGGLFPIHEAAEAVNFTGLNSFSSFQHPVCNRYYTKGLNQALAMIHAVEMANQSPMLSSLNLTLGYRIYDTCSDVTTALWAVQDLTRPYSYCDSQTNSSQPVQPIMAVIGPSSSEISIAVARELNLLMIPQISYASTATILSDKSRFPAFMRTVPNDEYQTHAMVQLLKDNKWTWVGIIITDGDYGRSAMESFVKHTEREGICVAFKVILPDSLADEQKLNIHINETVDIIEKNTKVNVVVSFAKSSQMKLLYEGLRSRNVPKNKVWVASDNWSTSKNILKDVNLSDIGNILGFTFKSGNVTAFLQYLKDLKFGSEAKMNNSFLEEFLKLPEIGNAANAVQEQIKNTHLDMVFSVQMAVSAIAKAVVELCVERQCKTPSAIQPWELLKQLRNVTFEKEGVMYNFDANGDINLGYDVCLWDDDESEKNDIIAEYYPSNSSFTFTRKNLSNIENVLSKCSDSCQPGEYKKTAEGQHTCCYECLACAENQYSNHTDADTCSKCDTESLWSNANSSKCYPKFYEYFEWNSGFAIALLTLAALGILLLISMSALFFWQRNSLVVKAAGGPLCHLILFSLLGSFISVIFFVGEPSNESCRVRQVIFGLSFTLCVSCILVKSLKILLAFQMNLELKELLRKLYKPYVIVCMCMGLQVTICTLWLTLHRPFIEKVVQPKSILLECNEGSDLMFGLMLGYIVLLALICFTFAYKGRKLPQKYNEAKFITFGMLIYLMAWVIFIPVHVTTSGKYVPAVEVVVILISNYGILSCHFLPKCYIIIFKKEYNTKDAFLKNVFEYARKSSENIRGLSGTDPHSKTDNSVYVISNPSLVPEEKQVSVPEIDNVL
Nature of the test: biochemical. Type of test: binding. To be noted: for binding to receptor 5.24, in words: comparative binding studies. How it is done: Structure-Activity Properties of Compounds Interacting with the Cloned Goldfish Amino Acid Odorant Receptor. An understanding of how odorant receptors are used to encode olfactory information requires a characterization of the odorant specificities of individual receptor types. We therefore wished to determine the relative specificity of receptor 5.24 for structurally related ligands. […] Briefly, 3H-arginine binding to membranes from receptor 5.24-expressing HEK 293 cells was assayed in the absence or presence of varying concentrations of competitor ligands.
Mammalian Cell Culture and DNA Transfections. For cell transfections, the receptor 5.24 cDNA insert was subcloned into two expression vectors: CMVI, which utilizes a human cytomegalovirus (CMV) immediate early promoter-enhancer plus the CMV intron A sequence to drive expression, and 608RX-2.2L, which is similar to CMVI except the cDNA insert is followed by an internal ribosome entry site (IRES)—enhanced green fluorescent protein (EGFP) coding sequence; 608RX-2.2L also contains a puromycin resistance gene. For transient assays, HEK 293 cells expressing the SV40 large T antigen (293 TSA cells) were transfected with the CMVI-receptor 5.24 or CMVI control plasmid using lipofectamine (Life Technologies) and harvested at 48 hours for membrane preparations. For stable cell lines, 293-TSA cells were transfected with the 608RX-2.2L-receptor 5.24 plasmid or a control 608RX-2.2L plasmid and selected in puromycin. Colonies showing high levels of EGFP fluorescence (as judged by epifluorescence microscopy) were picked, expanded, and screened for 3H-L-arginine binding (see below).
Membrane Preparations and Ligand Binding Assays. Membranes for ligand binding assays were prepared by washing confluent cells three times with phosphate buffered saline (PBS), detaching cells with a PBS-based enzyme-free dissociation solution, and resuspending cells in ice-cold 5.0 mM Hepes, pH 7.4, 1.0 mM EDTA, 1.0 μg/ml leupeptin, 0.5 mM PMSF. All subsequent manipulations were performed on ice. After a 30 min incubation, the cell suspension was homogenized and centrifuged at 100,000×g for 30 min. Cell membrane pellets were washed twice by resuspension and centrifugation in binding buffer (20 mM Hepes, pH 7.4, 1.0 mM EDTA, 2.0 mM MgCl2, 1.0 μg/ml leupeptin, 0.5 mM PMSF), resuspended in binding buffer, and frozen at −80° C.
Saturation binding assays were performed using 20-25 μg of membrane protein in a final volume of 100 μl binding buffer and increasing concentrations of [2,3-3H] L-arginine (specific activity=40 Ci/mmol; Dupont NEN). Non-specific binding was measured in the presence of 500 μM unlabeled L-arginine. Competition assays were performed with 500 nM [2,3-3H] L-arginine and increasing concentrations of competitor ligands. All incubations were performed at 4° C. for 60 min and terminated by rapid filtration through Whatman GF/C filters pretreated with ice cold 0.1% polyethyleneimine. Filters were washed three times with 4.0 ml ice cold 20 mM Hepes, pH 7.4, and retained radioactivity was measured by scintillation counting.

Test [2] concerns the target T1, receptor 5.24. Nature of the test: evoked currents in Xenopus oocytes expressing receptor 5.24 (two-electrode voltage clamp). The format is cell-based, goldfish. The source says:
Identification by Expression Cloning of a cDNA Encoding a Goldfish Odorant Receptor. RNA was synthesized from pools of goldfish olfactory cDNA clones (900 individual clones per pool) and injected into Xenopus oocytes together with synthetic RNAs encoding GIRK and Gaolf. Oocytes were then screened for responses upon exposure to odorant cocktails containing amino acids, bile acids, or sex pheromones. […] The response to amino acids was biphasic, beginning with an oscillating inward current above the basal inward K+ current, followed by a decline in inward current to below the basal level. Such a biphasic effect is thought to be caused by Gaq-mediated activation of phospholipase C (responsible for the intial inward current via IP3) and protein kinase C (leading to suppression of the K+ current through phosphorylation of GIRK channel subunits) (Sharon et al., 1997).
Iterative subdivision of pool 19 by sib-selection allowed the isolation of a single clone encoding a receptor, designated receptor 5.24.
Oocytes were removed from anesthetized Xenopus laevis and treated with collagenase. Forty nanograms of cRNA from each cDNA library pool (˜40 pg cRNA/clone) was injected per oocyte, together with cRNAs encoding Gaolf and the GIRK subunits Kir 3.1 and Kir 3.4 (˜30 pg each). Approximately 30 pools were assayed before these primary screens were halted. Injected oocytes were incubated at 17° C. for over 80 hours prior to electrophysiological recordings. Recordings were performed by two-electrode voltage clamping using an Axoclamp-2A amplifier (Axon Instruments) or a Dagan CA-1 amplifier (Dagan Corp.). Data acquisition and analysis were performed using pCLAMP software (Axon Instruments). Membrane potential was held at −80 mV. For trials involving GIRK, oocytes were first perfused with Na-MBSH (88 mM NaCl, 1 mM KCl, 2.4 mM NaHCO3, 10 mM Hepes, pH 7.5, 0.82 mM MgSO4[7H2O], 0.33 mM Ca[NO3]2[4H2O], 0.41 mM CaCl2[2H2O]), and then switched into K-MBSH, which contains elevated K+ (88 mM KCl, 1 mM NaCl) until the basal current had stabilized (˜45 seconds) before challenging with agonist. Recordings on oocytes injected with receptor 5.24 in the absence of Gaolf and/or GIRK subunits were performed in Na-MBSH. Oocytes were exposed to solutions containing different agonists by switching bathing solutions with an 8 channel valve (Hamilton).

Setting [3] is: displacement of 3H-L-arginine from membranes of HEK 293 cells expressing receptor 5.24, read-out: Ki (binding affinity).
[4] abbreviates: 3H-arginine displacement, read-out: Ki.
Setting [5] is: read-out: Ki (binding affinity), displacement of 3H-L-arginine from membranes of HEK 293 cells expressing receptor 5.24.

Structures are written as SMILES. “Also recorded” adds a separate entry of the source. Where two headings read alike, the source gives them in different places.

Consider `O=C(O)[C@@H]1CCCN1` [L-Proline], for which the “binding to receptor 5.24, in words” value at receptor 5.24 [1] was “low affinities”. Further, the Ki at receptor 5.24 [1] (setting [3]) worked out at 58 µM.
`NCCCCCN` [Cadaverine]: the Ki on receptor 5.24 [1] (setting [4]) and at receptor 5.24 [1] (setting [3]) was over 1000 µM throughout. Also, the “binding to receptor 5.24, in words” value on receptor 5.24 [1] is reported as “essentially no binding”.
Consider `NC(=O)NCCC[C@H](N)C(=O)O` [L-Citruline], for which, at receptor 5.24 [1] (setting [3]), the inhibition constant (Ki) turned out to be 0.96 µM.
Regarding `CSCC[C@H](N)C(=O)O` [L-Methionine], at receptor 5.24 [1] (setting [3]), the inhibition constant (Ki) stood at 0.81 µM. In addition, the “activation of receptor 5.24 (evoked currents), in words” value (“activation” below) on receptor 5.24 [2] was “smaller responses”.
Regarding `N[C@@H](CS)C(=O)O` [L-Cysteine], the Ki on receptor 5.24 [1] (setting [3]) is 0.53 µM.
Take `NCC(=O)O` [L-Glycine]: at receptor 5.24 [1] (setting [3]), the Ki amounted to 3.9 µM.
Turning to `NC(=O)CC[C@H](N)C(=O)O` [L-Glutamine], the Ki on receptor 5.24 [1] (setting [3]) was 0.32 µM.
Consider `CC[C@H](C)[C@H](N)C(=O)O` [L-Isoleucine], for which, at receptor 5.24 [1] (setting [3]), the Ki came out at 2.2 µM. For the same compound, the “activation” value at receptor 5.24 [2] was “smaller responses”.
Consider `NCCC(=O)N[C@@H](Cc1cnc[nH]1)C(=O)O` [Carnosine], for which the inhibitory constant (Ki) on receptor 5.24 [1] (setting [4]) and at receptor 5.24 [1] (setting [3]) was over 1000 µM throughout. In addition, the “binding to receptor 5.24, in words” value at receptor 5.24 [1] was “no specific interactions”.
As for `NCCCC(=O)O` [γ-Aminobutyric Acid (GABA), γ-Aminobutyric Acid], on receptor 5.24 [1], the Ki is over 1000 µM and the “binding to receptor 5.24, in words” value was “no specific interactions”. Besides, the Ki at receptor 5.24 [1] (setting [5]) is over 1000 µM.
In the case of `NCCS(=O)(=O)O` [Taurine], the inhibition constant (Ki) on receptor 5.24 [1] (setting [4]) and on receptor 5.24 [1] (setting [3]) was over 1000 µM throughout. At receptor 5.24 [1], the “binding to receptor 5.24, in words” value was “no specific interactions”.
On to `N[C@@H](Cc1c[nH]c2ccccc12)C(=O)O` [L-Tryptophan], for which the “binding to receptor 5.24, in words” value on receptor 5.24 [1] is “low affinities”. At receptor 5.24 [1] (setting [3]), the Ki came out at 4.1 µM. At receptor 5.24 [2], the “activation” value is “little or no response”.
For `CC(C)C[C@H](N)C(=O)O` [L-Leucine], the Ki on receptor 5.24 [1] (setting [3]) is 4.4 µM.
`N[C@@H](Cc1c[nH]cn1)C(=O)O` [L-Histidine]: on receptor 5.24 [1], affinity was put at a Ki of 13 µM and the “binding to receptor 5.24, in words” value was “low affinities”. Besides, the “activation” value at receptor 5.24 [2] is “little or no response”.
`C[C@@H](O)[C@H](N)C(=O)O` [L-Threonine]: the Ki on receptor 5.24 [1] (setting [3]) is 3.2 µM. For the same compound, the “activation” value at receptor 5.24 [2] is given as “smaller responses”.
`N[C@@H](CCC(=O)O)C(=O)O` [L-Glutamate]: the “fold decrease in affinity / displacement relative to arginine or lysine” value on receptor 5.24 [1] (3H-arginine displacement) is “approximately 80 fold”. Moreover, the Ki at receptor 5.24 [1] (setting [3]) came to 6.7 µM. The results for the “activation” value on receptor 5.24 [2] (listed as Glutamate) and on receptor 5.24 [2] (listed as glutamate) were “does not appear to activate” and “little or no response; also recorded: not activated”, respectively.
Turning to `N[C@@H](Cc1ccc(O)cc1)C(=O)O` [L-Tyrosine], on receptor 5.24 [1], the inhibition constant Ki is 16 µM and the “binding to receptor 5.24, in words” value is on record as “low affinities”. For the same compound, the “activation” value on receptor 5.24 [2] is reported as “little or no response”.
On to `CC(C)[C@H](N)C(=O)O` [L-Valine], for which the Ki on receptor 5.24 [1] (setting [3]) is 6.2 µM.
On to `N=C(N)NCCCC[C@H](N)C(=O)O` [L-Homoarginine], for which, on receptor 5.24 [1], the inhibition constant Ki came out at 1.63 µM.
Turning to `COC(=O)[C@@H](N)CCCNC(=N)N[N+](=O)[O-]` [L-NAME], the “binding to receptor 5.24, in words” value at receptor 5.24 [1] is reported as “modest affinity”. Besides, the Ki on receptor 5.24 [1] (setting [3]) was found to be 1.02 µM.
Take `NC(=O)C[C@H](N)C(=O)O` [L-Asparagine]: the inhibitory constant (Ki) on receptor 5.24 [1] (setting [3]) turned out to be 2.1 µM.
On to `N[C@@H](Cc1ccccc1)C(=O)O` [L-Phenylalanine], for which the “binding to receptor 5.24, in words” value at receptor 5.24 [1] is given as “low affinities”. Moreover, the inhibition constant (Ki) on receptor 5.24 [1] (setting [3]) was found to be 5.8 µM. At receptor 5.24 [2], the “activation” value was “little or no response”.
Turning to `NCCC[C@H](N)C(=O)O` [L-Ornithine], the Ki on receptor 5.24 [1] (setting [4]) was determined as 1 µM.
Take `N=C(N)NCCCCN` [Agmatine]: the inhibition constant (Ki) on receptor 5.24 [1] and at receptor 5.24 [1] (setting [5]) was over 1000 µM throughout. Also, the “binding to receptor 5.24, in words” value on receptor 5.24 [1] is listed as “displaces 3H-arginine very poorly; also recorded: essentially no binding”.
At receptor 5.24 [1], `N[C@@H](CC(=O)O)C(=O)O` [L-Aspartate] came in with a Ki of 27 µM.
`NCCCCN` [Putrescine]: the Ki at receptor 5.24 [1] (setting [3]) is over 1000 µM.
As for `C[C@H](N)C(=O)O` [L-Alanine], the Ki at receptor 5.24 [1] (setting [3]) stood at 5.6 µM. The “activation” value at receptor 5.24 [2] was “smaller responses”.
Take `[Ca+2]` [calcium]: the “activation” value at receptor 5.24 [2] was “not activated”.
